Assay results: patent publication US7629361B2, “Salt of (S)-pantoprazole and its hydrates” (NYCOMED GmbH, priority 2002, dated 2009)
Entries after “also recorded” stand apart in the source; their conditions may differ.

Legend:
[1] = Storage stability of the solid salts at elevated temperature
[2] = Hygroscopicity / water content of the salts; assay type: physicochemical; conditions: depending on drying conditions and atmospheric humidity
Protocol: Drying was carried out in a vacuum drying cabinet at <50 mbar and 40-45° C. [It is also possible to dispense with drying and to use the moist product (having an MIBK content of 10-20%) directly for step B].

[3] = Wettability, dissolution rate and solubility compared to racemic pantoprazole magnesium dihydrate
[4] = tested on: pentagastrin-stimulated acid output in the Ghosh-Schild rat; experiment: Inhibition of acid output in the Ghosh-Schild rat after i.v. administration; assay type: in vivo; conditions: 1 μmol/kg i.v. 3 hours prior to pentagastrin stimulation; 3 to 7.5 hours after administration; FIG. 3; listed as (−)-enantiomer, Dihydrate
Protocol: Female Sprague Dawley CD rats (190-210 g body weight) were anaesthetised with 1.5 g/kg i.m. of urethane, in 5 ml/kg physiologic saline. The trachea was intubated and both, the left external jugular vein (for drug administration) and left femoral vein (for pentagastrin infusion) were cannulated. An esophagus/cardia-cannula (diameter: 1.7 mm) was inserted transorally, and a pylorus-cannula (diameter: 2.6 mm) was inserted through the duodenum, and both were secured with a ligature. The pyloric catheter was led through the right abdominal wall. Body temperature was maintained at 37.0±0.2° C. by means of infrared radiation and electric cushion (automatic infinite control via rectal temperature probe). After thorough flushing (about 50-100 ml), the stomach was continuously perfused with 0.5 ml/min of physiologic saline (37° C.). In the effluate, collected at 15 min intervals, the pH as well as the acid output were determined, the latter by titration to pH 7 with freshly prepared 0.01 N NaOH.
Gastric secretion was stimulated by a continuous intravenous infusion (left femoral vein) of 1 μg/kg×min pentagastrin (in 1.6 ml/h physiologic saline) starting after determination of two basal values of acid secretion, i.e., 30 min after commencement of stomach perfusion. See horizontal bars in FIGS. 1 and 2 for pentagastrin-infusion. […]

Recombinant CYP 2C19 = biological target: T1, Recombinant CYP 2C19 (Homo sapiens, UniProt P33261); experiment: Metabolization on recombinant CYP 2C19; assay type: in vitro ADME; conditions: 10 μM, 0.1 mg/ml protein, 120 min, n=3
T1 construct: purchased GENTEST
Protocol: (§1) I) Human liver microsomes: Pantoprazole racemate and the (+)- and (−)-enantiomers (10 μM each) were incubated with human liver microsomes (source: TEBU, incubation in 1 mg/ml protein, 100 mM Tris-HCl, pH 7.4, 1 mM NADPH2). Reaction was terminated after 30 and 120 minutes by liquid nitrogen, the parent compound was detected by HPLC (10 mM KH2PO4, pH 7.4, acetonitril gradient 20-48%).
II) Recombinant CYP 2C19 (source: GENTEST); incubation method as described under I) (in presence of 0.1 mg/ml protein).

human liver microsomes = experiment: Metabolization on human liver microsomes; assay type: in vitro ADME; conditions: 10 μM, 1 mg/ml protein, 120 min, n=3
Protocol: as §1

T1 sequence (P33261 whole entry): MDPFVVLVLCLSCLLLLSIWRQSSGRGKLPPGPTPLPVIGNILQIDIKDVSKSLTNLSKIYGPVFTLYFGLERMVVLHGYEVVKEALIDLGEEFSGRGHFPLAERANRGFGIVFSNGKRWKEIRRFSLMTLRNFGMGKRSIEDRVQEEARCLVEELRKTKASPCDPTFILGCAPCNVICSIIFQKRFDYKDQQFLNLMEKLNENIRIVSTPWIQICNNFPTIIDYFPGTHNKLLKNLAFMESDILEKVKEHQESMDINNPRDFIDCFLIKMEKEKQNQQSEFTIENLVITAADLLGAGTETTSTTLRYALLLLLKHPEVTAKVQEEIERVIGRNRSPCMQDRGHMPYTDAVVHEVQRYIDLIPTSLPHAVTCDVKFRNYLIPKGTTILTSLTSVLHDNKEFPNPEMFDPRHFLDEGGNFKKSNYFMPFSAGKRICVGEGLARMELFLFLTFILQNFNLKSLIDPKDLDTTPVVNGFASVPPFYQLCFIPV

Compound | hygroscopicity (absorption of water) [2] | water content [2] | metabolized on CYP2C19 (mean) (Recombinant CYP 2C19) | metabolized on human microsomes (mean) (human liver microsomes) | also measured
Magnesium (−)-bis{[5-(difluoromethoxy)]-2-[(3,4-dimethoxy-2-pyridinyl)methylsulphinyl]-1H-benzimidazolide} Dihydrate [(−)-pantoprazole magnesium dihydrate] | non-hygroscopic | about 4.4% |  |  | stability (discolouration, decomposition) on storage ([1]; 70° C., one week): completely stable; sum of by-products on storage ([1]; storage under atmospheric conditions, 60-70° C.): remains virtually constant; wettability compared to racemic pantoprazole magnesium dihydrate [3]: better wettability; dissolution rate compared to racemic pantoprazole magnesium dihydrate ([3]; pH 7-7.4): considerably higher dissolution rate; solubility relative to racemic pantoprazole magnesium dihydrate ([3]; pH 10): about tenfold; inhibition of acid secretion, Experiment 2, compared to the (+)-enantiomer [4]: significantly superior; also recorded: significantly more effective
COc1ccnc(C[S+]([O-])c2nc3ccc(OC(F)F)cc3[nH]2)c1OC (racemic) [racemate, 5-difluoromethoxy-2-[(3,4-dimethoxy-2-pyridinyl)methylsulphinyl]-1H-benzimidazole] |  |  | 67% | 44% | 
COc1ccnc(C[S+]([O-])c2nc3ccc(OC(F)F)cc3[nH]2)c1OC (single isomer, unassigned; (+)) [(+) enantiomer] |  |  | 64% | 44% | 
COc1ccnc(C[S+]([O-])c2nc3cc(OC(F)F)ccc3[nH]2)c1OC (single isomer, unassigned; (-)) [(−)-Pantoprazole, (−)-[5-(difluoromethoxy)]-2-[(3,4-dimethoxy-2-pyridinyl)methylsulphinyl]-1H-benzimidazole] |  |  | 54% | 26% | 
COc1ccnc(C[S+]([O-])c2nc3cc(OC(F)F)ccc3[n-]2)c1OC.[Na+] (single isomer, unassigned; (-)) [(−)-pantoprazole sodium] | absorbs water |  |  |  | purity (according to HPLC) after storage ([1]; storage at 60-70° C., atmospheric conditions, starting purity 99.5%): 96-97%; hygroscopicity (absorption of water) ([2]; listed as (−)-Pantoprazole-Na): hygroscopic
COc1ccnc(C[S+]([O-])c2nc3cc(OC(F)F)ccc3[n-]2)c1OC.COc1ccnc(C[S+]([O-])c2nc3cc(OC(F)F)ccc3[n-]2)c1OC.[Ca+2] (single isomer, unassigned; (-)) [(−)-pantoprazole calcium] |  | 4-8% |  |  | 
